Consider 15 molecules from patent publication US10568879B2 (GALAPAGOS NV, priority 2015, dated 2020).

Each structure is given as a SMILES string.

Test [1] deals with T1, GPR84 (Homo sapiens, UniProt Q9NQS5).
T1 construct: expressed in transfected cells
Put plainly: GPR84 [35S]GTPγS binding assay. In kind it is biochemical. The settings on record: 3,3′-diindolylmethane at EC80; membranes from stable cell line over expressing GPR84. Put shortly:
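Antagonist-mode [35S]GTPγS binding on membranes from a GPR84-overexpressing stable line (GDP-preincubated), stimulated with 3,3′-diindolylmethane at EC80. Buffer 20 mM Tris pH 7.5, 5 mM MgCl2, 250 mM NaCl, saponin; 0.1 nM [35S]GTPγS, 90 min at room temperature, SPA bead read-out.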

For test [2], the system named is human neutrophils. Put plainly: Human neutrophil migration assay. In kind it is cell-based. The settings on record: Homo sapiens, Neutrophil; embelin at EC80 as chemotactic agent; 1 h at 37° C.; read-out: Human neutrophil migration IC50. The procedure:
The activity of GPR84 agonists and antagonists can therefore be assayed in a human neutrophil migration assay. The human neutrophil migration assay makes use of freshly isolated human neutrophils from buffy coats that are subsequently used in a functional chemotaxis assay setup. […] After 1 h of incubation at 37° C. and 5% CO2, the number of migrated neutrophils in the lower compartment can be quantified by measuring the ATP content using ATPlite™ Luminescence Assay System. A human buffy coat suspension is diluted with an equal volume of ice cold DPBS. 20 mL of the diluted buffy coat suspension is gently mixed with 4 mL of ACD buffer (140 mM citric acid, 200 mM sodium citrate and 220 mM dextrose). Then, 12 mL of a 6% dextran/0.9% NaCl solution (15 g dextran T2000 and 2.25 g NaCl dissolved in 250 mL H2O) is added to the mixture and the samples are inverted gently up to 20 times. The total volume is transferred to a new recipient and incubated at room temperature to allow sedimentation of red blood cells. The yellowish upper fraction is then transferred to a clean centrifugation tube and centrifuged for 12 min at 1300 rpm and 4° C. After centrifugation, the supernatant is discarded and the remaining cell pellet is rapidly resuspended in 12 mL of ice-cold H2O to perform a red blood cell lysis by osmotic burst. After 20 seconds, 4 mL of ice-cold 0.6 M KCl is added to restore salt concentration. Samples are mixed carefully and centrifuged for 6 min at 1300 rpm and 4° C. The supernatant is discarded and the red blood cell lysis procedure is repeated one more time. […] A neutrophil cell suspension of 8.9×10^6 cells per mL is prepared in chemotaxis buffer and 180 μL per well is plated in a 96-well V-bottom plate. 20 μL of test compound solution in chemotaxis buffer is added to the 180 μL cell suspension. The mixture is incubated at room temperature for 30 min with intermediate gentle resuspension of the cells after 15 min. […] After 1 h at 37° C., 5% CO2 in a humidified incubator, the upper plate of the Transwell® system is gently removed. […] After incubation, 270 μL of cell lysate is then transferred onto a white 96-well plate for quantification by a luminescence plate reader. The relative luminescent signal measured is considered linearly related to the number of cells having migrated from the upper compartment into the receiver well.

T1 sequence (Q9NQS5 whole entry): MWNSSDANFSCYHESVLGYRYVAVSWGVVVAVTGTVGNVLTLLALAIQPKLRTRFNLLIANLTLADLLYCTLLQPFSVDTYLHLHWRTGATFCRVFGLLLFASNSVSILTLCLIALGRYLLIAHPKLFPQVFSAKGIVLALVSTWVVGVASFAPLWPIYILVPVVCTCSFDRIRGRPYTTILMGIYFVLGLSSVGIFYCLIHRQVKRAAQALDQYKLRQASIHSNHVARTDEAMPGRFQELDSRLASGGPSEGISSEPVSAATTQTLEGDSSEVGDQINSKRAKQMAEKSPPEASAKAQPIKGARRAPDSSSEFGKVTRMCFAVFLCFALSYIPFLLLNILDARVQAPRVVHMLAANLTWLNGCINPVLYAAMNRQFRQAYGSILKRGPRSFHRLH

Take `Cc1c2n(c(OC[C@@H]3COCCO3)cc1=O)CCc1cc(N3CCC(F)(F)CC3)ccc1-2` [Compound 65, 9-(4,4-difluoro-1-piperidyl)-4-[[(2S)-1,4-dioxan-2-yl]methoxy]-1-methyl-6,7-dihydrobenzo[a]quinolizin-2-one]: the IC50 in test [1] and in test [2] was 0.01 to 100 nM in each case.
With `Cc1c2n(c(OC[C@@H]3COCCO3)cc1=O)CCc1cc(N3CCN(C(=O)C4CC4)CC3)ccc1-2` [Compound 69, 9-[4-(cyclopropanecarbonyl)piperazin-1-yl]-4-[[(2S)-1,4-dioxan-2-yl]methoxy]-1-methyl-6,7-dihydrobenzo[a]quinolizin-2-one], the IC50 in test [1] and in test [2] was 0.01 to 100 nM each time.
In the case of `Cc1c2n(c(OC[C@@H]3COCCO3)cc1=O)CCc1cc(NC(=O)C3CC3)ccc1-2` [Compound 70, N-[4-[[(2S)-1,4-dioxan-2-yl]methoxy]-1-methyl-2-oxo-6,7-dihydrobenzo[a]quinolizin-9-yl]cyclopropanecarboxamide], the IC50 in test [1] and in test [2] was 0.01 to 100 nM in each case.
With `COC(=O)N1CC=C(c2ccc3c(c2)CCn2c(OC[C@@H]4COCCO4)cc(=O)c(C)c2-3)CC1` [Compound 76, methyl 4-[4-[[(2S)-1,4-dioxan-2-yl]methoxy]-1-methyl-2-oxo-6,7-dihydrobenzo[a]quinolizin-9-yl]-3,6-dihydro-2H-pyridine-1-carboxylate], the IC50 in test [1] and in test [2] was 0.01 to 100 nM throughout.
Turning to `CCOC(=O)N1CC=C(c2ccc3c(c2)CCn2c(OC[C@@H]4COCCO4)cc(=O)c(C)c2-3)CC1` [Compound 77, ethyl 4-[4-[[(2S)-1,4-dioxan-2-yl]methoxy]-1-methyl-2-oxo-6,7-dihydrobenzo[a]quinolizin-9-yl]-3,6-dihydro-2H-pyridine-1-carboxylate], the IC50 in test [1] and in test [2] was 0.01 to 100 nM throughout.
On to `Cc1c2n(c(OC[C@@H]3COCCO3)cc1=O)CCc1cc(C3=CCN(C(=O)OC(C)C)CC3)ccc1-2` [Compound 78, isopropyl 4-[4-[[(2S)-1,4-dioxan-2-yl]methoxy]-1-methyl-2-oxo-6,7-dihydrobenzo[a]quinolizin-9-yl]-3,6-dihydro-2H-pyridine-1-carboxylate], for which the IC50 in test [1] and in test [2] was 0.01 to 100 nM in each case.
Consider `Cc1c2n(c(OC[C@@H]3COCCO3)cc1=O)CCc1cc(C3=CCN(C(=O)OCC(F)(F)F)CC3)ccc1-2` [Compound 79, 2,2,2-trifluoroethyl 4-[4-[[(2S)-1,4-dioxan-2-yl]methoxy]-1-methyl-2-oxo-6,7-dihydrobenzo[a]quinolizin-9-yl]-3,6-dihydro-2H-pyridine-1-carboxylate], for which the IC50 in test [1] and in test [2] was 0.01 to 100 nM each time.
As for `COC(=O)N1CCC(c2ccc3c(c2)CCn2c(OC[C@@H]4COCCO4)cc(=O)c(C)c2-3)CC1` [Compound 80, methyl 4-[4-[[(2S)-1,4-dioxan-2-yl]methoxy]-1-methyl-2-oxo-6,7-dihydrobenzo[a]quinolizin-9-yl]piperidine-1-carboxylate], the IC50 in test [1] and in test [2] was 0.01 to 100 nM in each case.
On to `CCOC(=O)N1CCC(c2ccc3c(c2)CCn2c(OC[C@@H]4COCCO4)cc(=O)c(C)c2-3)CC1` [Compound 81, ethyl 4-[4-[[(2S)-1,4-dioxan-2-yl]methoxy]-1-methyl-2-oxo-6,7-dihydrobenzo[a]quinolizin-9-yl]piperidine-1-carboxylate], for which the IC50 in test [1] and in test [2] was 0.01 to 100 nM each time.
As for `Cc1c2n(c(OC[C@@H]3COCCO3)cc1=O)CCc1cc(C3CCN(C(=O)OC(C)C)CC3)ccc1-2` [Compound 82, isopropyl 4-[4-[[(2S)-1,4-dioxan-2-yl]methoxy]-1-methyl-2-oxo-6,7-dihydrobenzo[a]quinolizin-9-yl]piperidine-1-carboxylate], the IC50 in test [1] and in test [2] was 0.01 to 100 nM in each case.
As for `Cc1c2n(c(OC[C@@H]3COCCO3)cc1=O)CCc1cc(C3CCN(C(=O)OCC(F)(F)F)CC3)ccc1-2` [Compound 83, 2,2,2-trifluoroethyl 4-[4-[[(2S)-1,4-dioxan-2-yl]methoxy]-1-methyl-2-oxo-6,7-dihydrobenzo[a]quinolizin-9-yl]piperidine-1-carboxylate], the IC50 in test [1] and in test [2] was 0.01 to 100 nM each time.
`Cc1c2n(c(OC[C@@H]3COCCO3)cc1=O)CCc1cc(N3CC(F)(F)C3)ccc1-2` [Compound 86, 9-(3,3-difluoroazetidin-1-yl)-4-[[(2S)-1,4-dioxan-2-yl]methoxy]-1-methyl-6,7-dihydrobenzo[a]quinolizin-2-one]: the IC50 in test [1] and in test [2] was 0.01 to 100 nM each time.
With `Cc1c2n(c(OC[C@@H]3COCCO3)cc1=O)CCc1cc(N3CC(F)C3)ccc1-2` [Compound 91, 4-[[(2S)-1,4-dioxan-2-yl]methoxy]-9-(3-fluoroazetidin-1-yl)-1-methyl-6,7-dihydrobenzo[a]quinolizin-2-one], the figures for the IC50 in test [1] and in test [2] were 0.01 to 100 nM and 100 to 500 nM, respectively.
Taken in the same sequence, the figures for `Cc1c2n(c(OC[C@@H]3COCCO3)cc1=O)CCc1cc(N3CCC3)ccc1-2` [Compound 93, 9-(azetidin-1-yl)-4-[[(2S)-1,4-dioxan-2-yl]methoxy]-1-methyl-6,7-dihydrobenzo[a]quinolizin-2-one] were 0.01 to 100 nM and 100 to 500 nM.
The like results for `Cc1c2n(c(OC[C@@H]3COCCO3)cc1=O)CCc1cc(N3CC(n4cccn4)C3)ccc1-2` [Compound 95, 4-[[(2S)-1,4-dioxan-2-yl]methoxy]-1-methyl-9-(3-pyrazol-1-ylazetidin-1-yl)-6,7-dihydrobenzo[a]quinolizin-2-one] were, in that order, 0.01 to 100 nM and 100 to 500 nM.
